Source: publication PMC11671526, “β-caryophyllene sensitizes hepatocellular carcinoma cells to chemotherapeutics and inhibits cell malignancy through targeting MAPK signaling pathway” (Frontiers in Pharmacology, 2024)

Test system: HepG2 cells
Experiment: RNA-seq transcriptome analysis of differentially expressed genes
Format: cell-based, human
Settings: BCP vs control HepG2
Method: The quality and concentration of RNA were examined by MOPS RNA electrophoresis and Eppendorf BioSpectrometer. The transcriptome analysis was performed by BGI-Wuhan China. The RNA-seq dataset of this study is accessible in the Gene Expression Omnibus (GEO) with an access number of GSE276099. The sequence library for each sample was prepared using the BGISEQ-500 platform with a 50-bp single-end (SE50) format. […]2.2.1) was used to align the clean reads to the reference genome and alignment of the clean reads to the reference genes was carried out using Bowtie2 (v2.4.5) ([Langmead and Salzberg, 2012]; [Kim et al., 2015]). Gene expression levels were calculated by RSEM (v1.3.1) ([Li and Dewey, 2011]). Analysis of differential gene expression was performed using edgeR in the Bioconductor software package ([Robinson et al., 2010]). Using a standard protocol, the RNA samples were also examined by reverse transcription and quantitative polymerase chain reaction (RT-qPCR). In brief, for reverse transcription, total RNA (1 μg) and gDNA wiper Mix were incubated at 42°C for 2 min. The samples were immediately incubated with a master mix containing 10 pmol/μL of poly (dT) primers at 37°C for 15 min and 85°C for 5 s. To detect the expression of specific genes by qPCR analysis, gene-specific primers (shown in Supplementary Table S1) were mixed with the ChamQ Universal SYBER qPCR Master Mix and the reaction was conducted using the Roche Lightcycler 480. The GAPDH value was used to normalize the results of each gene. The RNA-seq data of BCP-treated HepG2 cells were screened for DEGs. Gene symbols were turned into Enterz ID using the org.Hs.eg.db Bio-conductor R package. The cluster profiler (v4.6.2) package was used to perform the Kyoto Encyclopedia of Genes and Genomes (KEGG) and Gene Ontology (GO) enrichment analyses ([Wu et al., 2021]). Following the Transcript per million (TPM) data of the dataset, the line chart, and heatmap were plotted using ggplot2 and pheatmap R packages, respectively.

C=C1CC/C=C(\C)CC[C@@H]2[C@@H]1CC2(C)C [BCP, β-caryophyllene]
logFC LIPH (gene LIPH, RNA-seq): -0.6901
change LIPH (gene LIPH, DEG direction): Down
logFC LOC107984590 (gene LOC107984590, RNA-seq): -1.673
change LOC107984590 (gene LOC107984590, DEG direction): Down
logFC LRRK1 (gene LRRK1, RNA-seq): -0.9626
change LRRK1 (gene LRRK1, DEG direction): Down
logFC LYSMD4 (gene LYSMD4, RNA-seq): -0.6364
change LYSMD4 (gene LYSMD4, DEG direction): Down
logFC MAB21L4 (gene MAB21L4, RNA-seq): 0.9293
change MAB21L4 (gene MAB21L4, DEG direction): Up
logFC MAFA (gene MAFA, RNA-seq): -0.8959
change MAFA (gene MAFA, DEG direction): Down
logFC MAGEB17 (gene MAGEB17, RNA-seq): -2.787
change MAGEB17 (gene MAGEB17, DEG direction): Down
logFC MALL (gene MALL, RNA-seq): -0.8293
change MALL (gene MALL, DEG direction): Down
logFC MAMDC2 (gene MAMDC2, RNA-seq): 1.292
change MAMDC2 (gene MAMDC2, DEG direction): Up
logFC MAP1A (gene MAP1A, RNA-seq): -1.186
change MAP1A (gene MAP1A, DEG direction): Down
logFC MAP7 (gene MAP7, RNA-seq): 0.7065
change MAP7 (gene MAP7, DEG direction): Up
logFC MEF2B (gene MEF2B, RNA-seq): -1.481
change MEF2B (gene MEF2B, DEG direction): Down
logFC METTL7A (gene METTL7A, RNA-seq): -1.025
change METTL7A (gene METTL7A, DEG direction): Down
logFC MFSD12 (gene MFSD12, RNA-seq): 0.7075
change MFSD12 (gene MFSD12, DEG direction): Up
logFC MMP17 (gene MMP17, RNA-seq): 0.8815
change MMP17 (gene MMP17, DEG direction): Up
logFC MMP24 (gene MMP24, RNA-seq): 1.043
change MMP24 (gene MMP24, DEG direction): Up
logFC MNX1 (gene MNX1, RNA-seq): -0.6432
change MNX1 (gene MNX1, DEG direction): Down
logFC MRPS6 (gene MRPS6, RNA-seq): -0.923
change MRPS6 (gene MRPS6, DEG direction): Down
logFC MTUS2 (gene MTUS2, RNA-seq): -1.542
change MTUS2 (gene MTUS2, DEG direction): Down
logFC MXD4 (gene MXD4, RNA-seq): -0.5803
change MXD4 (gene MXD4, DEG direction): Down
logFC MYEOV (gene MYEOV, RNA-seq): -0.7568
change MYEOV (gene MYEOV, DEG direction): Down
logFC MYH15 (gene MYH15, RNA-seq): -1.78
change MYH15 (gene MYH15, DEG direction): Down
logFC MYLK3 (gene MYLK3, RNA-seq): 0.5851
change MYLK3 (gene MYLK3, DEG direction): Up
logFC MYT1L (gene MYT1L, RNA-seq): 0.8858
change MYT1L (gene MYT1L, DEG direction): Up
logFC MYZAP (gene MYZAP, RNA-seq): -1.044
change MYZAP (gene MYZAP, DEG direction): Down
logFC NDC80 (gene NDC80, RNA-seq): 0.6133
change NDC80 (gene NDC80, DEG direction): Up
logFC NES (gene NES, RNA-seq): -0.6748
change NES (gene NES, DEG direction): Down
logFC NEXN (gene NEXN, RNA-seq): 0.7024
change NEXN (gene NEXN, DEG direction): Up
logFC NKD1 (gene NKD1, RNA-seq): 1.009
change NKD1 (gene NKD1, DEG direction): Up
logFC NKD2 (gene NKD2, RNA-seq): 0.8671
change NKD2 (gene NKD2, DEG direction): Up
logFC NOG (gene NOG, RNA-seq): -0.6516
change NOG (gene NOG, DEG direction): Down
logFC NOXO1 (gene NOXO1, RNA-seq): -0.746
change NOXO1 (gene NOXO1, DEG direction): Down
logFC NPIPB8 (gene NPIPB8, RNA-seq): -2.227
change NPIPB8 (gene NPIPB8, DEG direction): Down
logFC NR4A1 (gene NR4A1, RNA-seq): 0.6275
change NR4A1 (gene NR4A1, DEG direction): Up
logFC NR4A3 (gene NR4A3, RNA-seq): 0.9047
change NR4A3 (gene NR4A3, DEG direction): Up
logFC OASL (gene OASL, RNA-seq): -1.216
change OASL (gene OASL, DEG direction): Down
logFC P4HA3 (gene P4HA3, RNA-seq): 1.2167
change P4HA3 (gene P4HA3, DEG direction): Up
logFC PAK6 (gene PAK6, RNA-seq): -1.538
change PAK6 (gene PAK6, DEG direction): Down
logFC PALM3 (gene PALM3, RNA-seq): -0.7485
change PALM3 (gene PALM3, DEG direction): Down
logFC PAPPA (gene PAPPA, RNA-seq): 0.997
change PAPPA (gene PAPPA, DEG direction): Up
logFC PAQR5 (gene PAQR5, RNA-seq): -0.667
change PAQR5 (gene PAQR5, DEG direction): Down
logFC PCSK1 (gene PCSK1, RNA-seq): 0.7709
change PCSK1 (gene PCSK1, DEG direction): Up
logFC PDE7B (gene PDE7B, RNA-seq): 0.7688
change PDE7B (gene PDE7B, DEG direction): Up
logFC PDK1 (gene PDK1, RNA-seq): 0.6017
change PDK1 (gene PDK1, DEG direction): Up
logFC PDK4 (gene PDK4, RNA-seq): 1.109
change PDK4 (gene PDK4, DEG direction): Up
logFC PI3 (gene PI3, RNA-seq): -1.544
change PI3 (gene PI3, DEG direction): Down
logFC PLD1 (gene PLD1, RNA-seq): 0.6612
change PLD1 (gene PLD1, DEG direction): Up
logFC PLEKHG1 (gene PLEKHG1, RNA-seq): 0.983
change PLEKHG1 (gene PLEKHG1, DEG direction): Up
logFC PNPLA6 (gene PNPLA6, RNA-seq): -0.6244
change PNPLA6 (gene PNPLA6, DEG direction): Down
logFC PPP1R15A (gene PPP1R15A, RNA-seq): 0.636
change PPP1R15A (gene PPP1R15A, DEG direction): Up
logFC PRICKLE2 (gene PRICKLE2, RNA-seq): -2.048
change PRICKLE2 (gene PRICKLE2, DEG direction): Down
logFC PRKCZ (gene PRKCZ, RNA-seq): 0.789
change PRKCZ (gene PRKCZ, DEG direction): Up
logFC PRRG4 (gene PRRG4, RNA-seq): -0.7407
change PRRG4 (gene PRRG4, DEG direction): Down
logFC PSD4 (gene PSD4, RNA-seq): -0.8285
change PSD4 (gene PSD4, DEG direction): Down
logFC PTGS1 (gene PTGS1, RNA-seq): -1.083
change PTGS1 (gene PTGS1, DEG direction): Down
logFC PXDN (gene PXDN, RNA-seq): 0.6603
change PXDN (gene PXDN, DEG direction): Up
logFC RAB17 (gene RAB17, RNA-seq): -1.103
change RAB17 (gene RAB17, DEG direction): Down
logFC RAB43 (gene RAB43, RNA-seq): -0.73
change RAB43 (gene RAB43, DEG direction): Down
logFC RAPGEF3 (gene RAPGEF3, RNA-seq): -0.8733
